Activity calls are given as the source filed them. The calls are words filed in the database; no cut-off is given here.
Assays:
ECV-304 [1] = test: Cytotoxicity against human ECV304 cells at 15 ug/ml after 72 hrs by XTT reduction assay; format: cell-based; details: ecv-304, 72 h
ECV-304 [2] = test: Induction of type I ribosome-inactivating protein-mediated cytotoxicity of human ECV304 cells measured at 15 ug/ml after 72 hrs by XTT reduction assay; format: functional, cell-based

## C[C@@H]1O[C@@H](O[C@H]2[C@H](OC(=O)[C@]34CCC(C)(C)C[C@H]3C3=CC[C@@H]5[C@@]6(C)CC[C@H](O[C@@H]7O[C@H](C(=O)O)[C@@H](O)[C@H](O[C@@H]8OC[C@@H](O)[C@H](O)[C@H]8O)[C@H]7O[C@@H]7O[C@H](CO)[C@H](O)[C@H](O)[C@H]7O[C@@H]7O[C@H](CO)[C@H](O)[C@H](O)[C@H]7O)[C@@](C)(C=O)[C@@H]6CC[C@@]5(C)[C@]3(C)CC4)O[C@H](C)[C@@H](O)[C@@H]2O)[C@H](O)[C@H](O[C@@H]2O[C@H](CO)[C@@H](O)[C@H](O)[C@H]2O)[C@H]1O[C@@H]1OC[C@@H](O)[C@H](O[C@@H]2OC[C@@H](O)[C@H](O)[C@H]2O)[C@H]1O
ECV-304 [1]
  Activity: Non-toxic
ECV-304 [2]
  Activity: Active

## C[C@@H]1O[C@@H](O[C@H]2[C@H](OC(=O)[C@]34CCC(C)(C)C[C@H]3C3=CC[C@@H]5[C@@]6(C)CC[C@H](O[C@@H]7O[C@H](C(=O)O)[C@@H](O)[C@H](O[C@@H]8OC[C@@H](O)[C@H](O)[C@H]8O)[C@H]7O[C@@H]7O[C@H](CO)[C@H](O)[C@H](O)[C@H]7O)[C@@](C)(C=O)[C@@H]6CC[C@@]5(C)[C@]3(C)C[C@H]4O)O[C@H](C)[C@@H](O)[C@@H]2O)[C@H](O)[C@H](O[C@@H]2O[C@H](CO)[C@@H](O)[C@H](O)[C@H]2O)[C@H]1O[C@@H]1OC[C@@H](O)[C@H](O[C@@H]2OC[C@@H](O)[C@H](O)[C@H]2O)[C@H]1O
ECV-304 [1]
  Activity: Non-toxic
ECV-304 [2]
  Activity: Active

— ChEMBL document CHEMBL2331128, “Nebulosides A-B, novel triterpene saponins from under-ground parts of Gypsophila arrostii Guss. var. nebulosa” (Bioorg Med Chem, 2013)
